Source: ChEMBL document CHEMBL3046368, “Synthesis of benzothiazole derivatives and their biological evaluation as anticancer agents” (2012)

Key:
Format in all cases: functional
[1] = tested on: T47D; test: Cytotoxicity against Homo sapiens (human) T47D cells after 48 hr by SRB assay
[2] = tested on: DU-145; test: Cytotoxicity against Homo sapiens (human) DU145 cells after 48 hr by SRB assay; details: DU-145, 48 h
[3] = tested on: PC-3; test: Cytotoxicity against Homo sapiens (human) PC3 cells after 48 hr by SRB assay; details: PC-3, 48 h
[4] = tested on: UO-31; test: Cytotoxicity against Homo sapiens (human) UO31 cells after 48 hr by SRB assay; details: UO-31, 48 h
[5] = tested on: RXF 393; test: Cytotoxicity against Homo sapiens (human) RXF393 cells after 48 hr by SRB assay; details: RXF 393, 48 h
[6] = tested on: A498; test: Cytotoxicity against Homo sapiens (human) A498 cells after 48 hr by SRB assay; details: A498, 48 h
[7] = tested on: 786-0; test: Cytotoxicity against Homo sapiens (human) 786-0 cells after 48 hr by SRB assay; details: 786-0, 48 h
[8] = tested on: SK-OV-3; test: Cytotoxicity against Homo sapiens (human) SKOV3 cells after 48 hr by SRB assay; details: SK-OV-3, 48 h
[9] = tested on: OVCAR-4; test: Cytotoxicity against Homo sapiens (human) OVCAR4 cells after 48 hr by SRB assay; details: OVCAR-4, 48 h
[10] = tested on: SK-MEL-5; test: Cytotoxicity against Homo sapiens (human) SK-MEL-5 cells after 48 hr by SRB assay; details: SK-MEL-5, 48 h
[11] = tested on: M14; test: Cytotoxicity against Homo sapiens (human) M14 cells after 48 hr by SRB assay; details: M14, 48 h
[12] = tested on: LOX IMVI; test: Cytotoxicity against Homo sapiens (human) LOXIMVI cells after 48 hr by SRB assay
[13] = tested on: SNB-19; test: Cytotoxicity against Homo sapiens (human) SNB19 cells after 48 hr by SRB assay; details: SNB-19, 48 h
[14] = tested on: SNB-75; test: Cytotoxicity against Homo sapiens (human) SNB75 cells after 48 hr by SRB assay; details: SNB-75, 48 h
[15] = tested on: SF-268; test: Cytotoxicity against Homo sapiens (human) SF268 cells after 48 hr by SRB assay; details: SF-268, 48 h
[16] = tested on: SF-295; test: Cytotoxicity against Homo sapiens (human) SF295 cells after 48 hr by SRB assay; details: SF-295, 48 h
[17] = tested on: KM12; test: Cytotoxicity against Homo sapiens (human) KM12 cells after 48 hr by SRB assay; details: KM12, 48 h
[18] = tested on: SW-620; test: Cytotoxicity against Homo sapiens (human) SW620 cells after 48 hr by SRB assay; details: SW-620, 48 h
[19] = tested on: HCT-116; test: Cytotoxicity against Homo sapiens (human) HCT116 cells after 48 hr by SRB assay; details: HCT-116, 48 h
[20] = tested on: HCT-15; test: Cytotoxicity against Homo sapiens (human) HCT15 cells after 48 hr by SRB assay; details: HCT-15, 48 h
[21] = tested on: HCC 2998; test: Cytotoxicity against Homo sapiens (human) HCC2998 cells after 48 hr by SRB assay; details: HCC 2998, 48 h
[22] = tested on: COLO 205; test: Cytotoxicity against Homo sapiens (human) COLO205 cells after 48 hr by SRB assay; details: COLO 205, 48 h
[23] = tested on: NCI-H522; test: Cytotoxicity against Homo sapiens (human) NCI-H522 cells after 48 hr by SRB assay; details: NCI-H522, 48 h
[24] = tested on: NCI-H322M; test: Cytotoxicity against Homo sapiens (human) NCI-H322M cells after 48 hr by SRB assay
[25] = tested on: MOLT-4; test: Cytotoxicity against Homo sapiens (human) MOLT4 cells after 48 hr by SRB assay; details: MOLT-4, 48 h
[26] = Cytotoxicity against Homo sapiens (human) breast cancer cells assessed as cell growth at 10^-5 M after 48 hr by SRB assay relative to control; details: Cancer cell lines, read-out: Activity
[27] = Cytotoxicity against Homo sapiens (human) colon cancer cells assessed as cell growth at 10^-5 M after 48 hr by SRB assay relative to control; details: Cancer cell lines, read-out: Activity
[28] = Cytotoxicity against Homo sapiens (human) leukemia cells assessed as cell growth at 10^-5 M after 48 hr by SRB assay relative to control; details: read-out: Activity
[29] = tested on: CCRF-CEM; test: Cytotoxicity against Homo sapiens (human) CCRF-CEM cells after 48 hr by SRB assay
[30] = tested on: HL-60(TB); test: Cytotoxicity against Homo sapiens (human) HL-60(TB) cells after 48 hr by SRB assay; details: HL-60, 48 h
[31] = tested on: NCI-H460; test: Cytotoxicity against Homo sapiens (human) NCI-H460 cells after 48 hr by SRB assay; details: NCI-H460, 48 h
[32] = tested on: NCI-H226; test: Cytotoxicity against Homo sapiens (human) NCI-H226 cells after 48 hr by SRB assay; details: NCI-H226, 48 h
[33] = tested on: NCI-H23; test: Cytotoxicity against Homo sapiens (human) NCI-H23 cells after 48 hr by SRB assay; details: NCI-H23, 48 h

For N#Cc1ccc(NC(=O)Nc2nc3ccc(OC(F)(F)F)cc3s2)cc1, the GI50 [1] was 0.427 µM, the GI50 [2] was 2.69 µM and the GI50 [3] was 1.35 µM. The GI50 [4] was 1.66 µM, the GI50 [5] was 1.86 µM and the GI50 [6] was 0.468 µM. It also gave a GI50 [7] of 2 µM, a GI50 [8] of 2.63 µM and a GI50 [9] of 1.62 µM. For the same compound, the GI50 [10] was 1.15 µM, the GI50 [11] was 2.4 µM and the GI50 [12] was 1.48 µM. For the same compound, the GI50 [13] was 1.51 µM, the GI50 [14] was 1.82 µM and the GI50 [15] was 3.09 µM. It also gave a GI50 [16] of 1.17 µM, a GI50 [17] of 1.02 µM and a GI50 [18] of 1.62 µM. For the same compound, the GI50 [19] was 0.55 µM, the GI50 [20] was 1.38 µM and the GI50 [21] was 1.29 µM. For the same compound, the GI50 [22] was 1.7 µM, the GI50 [23] was 0.427 µM and the GI50 [24] was 2.4 µM. The GI50 [25] was 1.86 µM, the growth at 10 µM [26] was -5.18% and the growth at 10 µM [27] was -11.2%. It also gave a growth at 10 µM [28] of -17.4%, a GI50 [29] of 1.51 µM and a GI50 [30] of 2.45 µM. The GI50 [31] was 0.603 µM, the GI50 [32] was 2 µM and the GI50 [33] was 0.575 µM.

O=C(Nc1ccc(F)cc1)Nc1nc2ccc(OC(F)(F)F)cc2s1 showed a GI50 [1] of 2.63 µM, a GI50 [2] of 3.47 µM and a GI50 [3] of 2.82 µM. It also gave a GI50 [4] of 3.47 µM, a GI50 [5] of 2.69 µM and a GI50 [6] of 2.95 µM. It also gave a GI50 [7] of 3.47 µM, a GI50 [8] of 2.57 µM and a GI50 [9] of 2.95 µM. For the same compound, the GI50 [10] was 2.45 µM, the GI50 [11] was 4.37 µM and the GI50 [12] was 3.24 µM. It also gave a GI50 [13] of 3.72 µM, a GI50 [14] of 3.47 µM and a GI50 [15] of 3.72 µM. It also gave a GI50 [16] of 2.57 µM, a GI50 [17] of 2.69 µM and a GI50 [18] of 3.72 µM. The GI50 [19] was 2.95 µM, the GI50 [20] was 3.02 µM and the GI50 [21] was 3.89 µM. It also gave a GI50 [22] of 2.09 µM, a GI50 [23] of 3.16 µM and a GI50 [24] of 4.47 µM. The GI50 [25] was 3.09 µM, the growth at 10 µM [26] was 19.2% and the growth at 10 µM [27] was 0.24%. The growth at 10 µM [28] was 17.3%, the GI50 [29] was 3.98 µM and the GI50 [30] was 3.02 µM. For the same compound, the GI50 [31] was 3.02 µM, the GI50 [32] was 2.82 µM and the GI50 [33] was 2.88 µM.
